Laboratory results: US9145354B2, “Pharmaceutical compounds” (priority 2011, dated 2015)
Where two headings read alike, the source gives them in different places.

How the values were obtained:
full length NS3/4a = full length NS3/4a (Hepatitis C virus genotype 1b (isolate BK) (HCV), UniProt P26663); test: NS3 Protease Assay (Example A), FRET-based; type: biochemical
In short: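 Full-length NS3/4a, made in-house, with an NS4A/B-derived peptide substrate carrying QXL520 quencher and 5-FAMsp fluorophore. Buffer 50 mM Tris pH8, 20 mM DTT, 1% CHAPS, 10% glycerol, 5% DMSO. Fluorescence followed 30 min at room temperature; IC50 from initial rates of replicate curves.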

[1] = test system: HCV subgenomic replicon in Huh-7 cells; test: Replicon Assay (Example B), luciferase readout EC50; type: cell-based; settings: Hepatitis C virus, Huh-7, replicon assay, luciferase readout; upper value of the cell pair; read-out: Assay B EC50
Description: The activities of compounds of the invention against HCV in a cellular environment were analysed using a replicon assay as described below.
(§1) Thus, Huh-7 cells persistently infected with an HCV-RNA construct (Bartenschlager, R. Hepatitis C replicons: potential role for drug development. Nature Rev. Drug Discov. 1, 911-916 (2002)) comprising: 5′ and 3′ non-translated regions (NTR); the non-structural genes NS3 to NS5b; as well as the G418 drug resistance gene, neomycin, (for selection of cells carrying HCV replicon RNA) fused to the firefly Luciferase reporter gene (pFKI3889Iuc-ubi-neo/NS3-3′/ET) were used to determine the cell based antiviral activity of compounds using luciferase activity as an indirect readout of HCV RNA load. In this assay […] huh-7 cells persistently infected with the HCV subgenomic replicon construct above were plated/well in a 96 well tissue culture plate. The cells were allowed to attach overnight in DMEM medium supplemented with 10% FBS 1% NEAA, and 250 μg/ml gentamicin. The following day the medium was replaced with 200 μl/well of fresh medium as described above lacking gentamicin. Semilog dilutions of compounds in medium were then added to triplicate wells (non-edge) of the cultured cells to give a 0.1% DMSO final concentration. Plates were then incubated at 37° C. in an atmosphere of 5% CO2 and air for 72 h. […] The plate was then read at 535 nm (excitation) and 590 nm (emission) on a SpectraMax Gemini reader (Molecular Devices) to determine the number of viable cells by measuring the conversion of rezasurin (Alamar blue) to resorufin in response to mitochondrial activity. In order to determine the antiviral effect of these compounds EC50 values were determined by measuring the luciferase activity of the cells. Alamar blue solution was removed from the wells and replaced with 100 μl/well of medium along with 100 μl/well of Bright-Glo reagent and incubated at room temperature for 5 minutes before transferring 100 μl/well to a white bottom 96 well plate to read in a luminometer as described in the Bright-Glo Luciferase Assay System protocol (promega).

[2] = Replicon Assay (Example B), Alamar Blue cytotoxicity CC50; type: cell-based; settings: human, lower value of the cell pair
From the text: as §1

[3] = HCV NS3 protease assay, full length NS3/4a, read-out: Assay A IC50 (μM) average
[4] = read-out: IC50 against the protease activity of the full length NS3/4a

full length NS3/4a, sequence (P26663 1027-1657): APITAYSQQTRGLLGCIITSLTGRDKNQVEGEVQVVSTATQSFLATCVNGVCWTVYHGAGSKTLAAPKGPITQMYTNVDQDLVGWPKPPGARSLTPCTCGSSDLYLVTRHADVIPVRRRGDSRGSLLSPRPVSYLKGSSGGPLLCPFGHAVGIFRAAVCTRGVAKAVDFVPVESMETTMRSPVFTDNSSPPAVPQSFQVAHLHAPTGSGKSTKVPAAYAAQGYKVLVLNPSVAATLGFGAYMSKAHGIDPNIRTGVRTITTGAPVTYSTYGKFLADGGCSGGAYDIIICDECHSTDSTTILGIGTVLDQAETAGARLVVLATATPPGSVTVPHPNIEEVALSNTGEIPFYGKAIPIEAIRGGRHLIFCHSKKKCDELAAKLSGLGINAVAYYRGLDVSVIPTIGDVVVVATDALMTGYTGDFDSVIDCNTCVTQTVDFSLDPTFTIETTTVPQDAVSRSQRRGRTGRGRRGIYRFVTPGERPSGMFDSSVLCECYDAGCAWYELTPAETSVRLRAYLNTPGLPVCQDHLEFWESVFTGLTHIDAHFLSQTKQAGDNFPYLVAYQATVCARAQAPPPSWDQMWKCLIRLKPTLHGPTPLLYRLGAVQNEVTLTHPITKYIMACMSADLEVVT

| Structure (SMILES) | IC50 (full length NS3/4a; [3]) [µM] | EC50 [1] [nM] | CC50 at 72 h [2] [nM] | inhibition at 0.1 µM (full length NS3/4a; @ 0.1 uM) [%] | IC50 (full length NS3/4a; [4]) [µM] | inhibition at 0.03 µM (full length NS3/4a; @ 0.03 uM) [%] |
| --- | --- | --- | --- | --- | --- | --- |
| CC[C@@H](N[C@@H](C)CC(N)=O)c1ccc(Cl)c(C(=O)c2cc(C)on2)c1F [Example 110, (3S)-3-{[(1R)-1-{4-chloro-2-fluoro-3-[(5-methyl-1,2-oxazol-3-yl)carbonyl]-phenyl}-propyl]amino}-butanamide] | 0.17 | 510 | > 3000 | – | – | – |
| CC[C@@H](NC(C)(C)CC(N)=O)c1ccc(Cl)c(C(=O)c2cccnc2)c1F [Example 113, 3-{[(1R)-1-{4-Chloro-2-fluoro-3-[(pyridin-3-yl)carbonyl]phenyl}propyl]amino}-3-methylbutanamide] | 0.093 | 180 | > 3000 | – | – | – |
| [2H]C([2H])([2H])C([2H])([2H])[C@@H](N[C@@H](C)CC(N)=O)c1ccc(Cl)c(C(=O)c2ccccc2)c1F [Example 115, (3S)-3-{[(1R)-1-(3-benzoyl-4-chloro-2-fluorophenyl)(2,2,3,3,3-D)propyl]amino}-butanamide] | – | 4.1 | > 3000 | 59 | – | – |
| CC[C@@H](N[C@@H](C)CC(N)=O)c1ccc(Cl)c(C(=O)c2ccc[n+]([O-])c2)c1F [Example 116, (S)-3-{(R)-1-[4-Chloro-2-fluoro-3-(1-oxy-pyridine-3-carbonyl)-phenyl]-propylamino}-butyramide] | 0.81 | > 3000 | > 3000 | – | – | – |
| C[C@@H](CC(N)=O)N[C@@H](c1ccc(Cl)c(C(=O)c2cccnc2)c1F)C1CC1 [Example 119, (3S)-3-{[(R)-{4-chloro-2-fluoro-3-[(pyridin-3-yl)carbonyl]phenyl} (cyclopropyl)methyl]amino}-butanamide] | 0.12 | 71 | > 3000 | – | < 1 | – |
| C[C@@H](CC(N)=O)N[C@@H](c1ccc(Cl)c(C(=O)c2ccc(F)cc2)c1F)C1CC1 [Example 121, (3S)-3-{[(R)-{4-chloro-2-fluoro-3-[(4-fluorophenyl)-carbonyl]phenyl}(cyclopropyl)methyl]amino}butanamide] | – | 9.9 | > 3000 | – | – | 38 |
| CC[C@@H](N[C@@H](C)C1(C(N)=O)CC1)c1ccc(Cl)c(C(=O)c2cccnc2)c1F [Example 132, 1-[(1S)-1-{[(1R)-1-{4-chloro-2-fluoro-3-[(pyridin-3-yl)carbonyl]phenyl}propyl]amino}ethyl]cyclopropane-1-carboxamide] | 0.14 | 25 | > 3000 | – | – | – |
| CC[C@@H](N[C@@H](C)CC(N)=O)c1ccc(Cl)c(C(=O)c2ccc(C#N)nc2)c1F [Example 133, (3S)-3-{[(1R)-1-{4-chloro-3-[(6-cyanopyridin-3-yl)carbonyl]-2-fluorophenyl}propyl]-amino}butanamide] | 0.12 | > 3000 | > 3000 | – | – | – |
| C[C@@H](CC(N)=O)N[C@@H](c1ccc(Cl)c(C(=O)c2ccncc2)c1F)C1CC1 [Example 134, (3S)-3-{[(R)-{4-chloro-2-fluoro-3-[(pyridin-4-yl)carbonyl]phenyl}-(cyclopropyl)methyl]-amino}butanamide] | 0.085 | 52 | > 3000 | – | – | – |
| CC[C@@H](N[C@@H](C)CC(N)=O)c1ccc(Cl)c(C(=O)c2ccc(-n3cccn3)nc2)c1F [Example 139, (3S)-3-{[(1R)-1-(4-chloro-2-fluoro-3-{[6-(1H-pyrazol-1-yl)pyridin-3-yl]carbonyl}phenyl)-propyl]amino}-butanamide] | 0.33 | 420 | > 3000 | – | < 1 | – |
| CC[C@@H](N[C@@H](C)CC(N)=O)c1ccc(Cl)c(C(=O)c2cc[n+]([O-])cc2)c1F [Example 142, (S)-3-{(R)-1-[4-Chloro-2-fluoro-3-(1-oxy-pyridine-4-carbonyl)-phenyl]-propylamino}-butyramide] | 0.3 | > 3000 | > 3000 | – | < 1 | – |
